In ChEMBL document CHEMBL1201862, “PubChem BioAssay data set” (2004):
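Grown in 96-well plates, cells were treated for 48 hours with each compound at five concentrations. Insufficient inhibition: endpoint recorded as highest concentration tested. Abbreviation: GI50, concentration required for 50% inhibition of growth.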 The source made the active and inactive calls. No stated cut-off is given here; in the data, active = GI50 up to about 1.1 µM and inactive = higher.

Key:
Assay in all cases: NCI-60 cell line screen, 48 h
RXF 393 = tested on: RXF 393
HT-29 = tested on: HT-29
SN12C = tested on: SN12C
SK-MEL-28 = tested on: SK-MEL-28
TK-10 = tested on: TK-10
SK-MEL-2 = tested on: SK-MEL-2
OVCAR-3 = tested on: OVCAR-3
SK-OV-3 = tested on: SK-OV-3
NCI-H460 = tested on: NCI-H460
SW-620 = tested on: SW-620
OVCAR-4 = tested on: OVCAR-4
SF-539 = tested on: SF-539
NCI-H522 = tested on: NCI-H522
Malme-3M = tested on: Malme-3M
M14 = tested on: M14
HOP-92 = tested on: HOP-92

Measured: GI50

CN1C/C(=C\C=C\c2ccccc2)C(=O)/C(=C/C=C/c2ccccc2)C1
inactive: RXF 393 > 100 µM | HT-29 > 100 µM | SN12C > 100 µM | SK-MEL-28 > 100 µM | TK-10 > 100 µM | SK-MEL-2 > 100 µM | OVCAR-3 > 100 µM | SK-OV-3 > 100 µM | NCI-H460 > 100 µM | SW-620 > 100 µM | OVCAR-4 > 100 µM | SF-539 > 100 µM | NCI-H522 54 µM | Malme-3M > 100 µM | M14 > 100 µM

CCc1cccc(C)c1NS(=O)(=O)c1ccccc1
inactive: RXF 393 > 100 µM | HT-29 > 100 µM | SK-MEL-28 > 100 µM | TK-10 > 100 µM | SK-MEL-2 > 100 µM | OVCAR-3 > 100 µM | SK-OV-3 > 100 µM | NCI-H460 > 100 µM | SW-620 > 100 µM | OVCAR-4 > 100 µM | SF-539 > 100 µM | Malme-3M > 100 µM | M14 > 100 µM

CCOC(C[C@H](O)[C@H]1COC(=S)S1)OCC
inactive: RXF 393 4.65 µM | HT-29 > 100 µM | SN12C > 100 µM | TK-10 > 100 µM | OVCAR-3 > 100 µM | SK-OV-3 > 10 µM | NCI-H460 > 100 µM | SW-620 > 100 µM | SF-539 > 100 µM | NCI-H522 > 100 µM | Malme-3M > 100 µM | M14 > 100 µM

O=C(c1ccccc1)[C@H]1Nc2ccc(Cl)cc2C2c3ccccc3CC21 (some centres not stated)
inactive: RXF 393 10.5 µM | HT-29 83.9 µM | SN12C 83.2 µM | SK-MEL-28 32.3 µM | TK-10 57.1 µM | SK-MEL-2 67 µM | OVCAR-3 21 µM | NCI-H460 63.5 µM | SW-620 50.5 µM | OVCAR-4 22.2 µM | SF-539 > 100 µM | NCI-H522 95.3 µM | Malme-3M > 10 µM | M14 31.6 µM

N#Cc1ccc(/C=N\N2C(=O)c3ccccc3C2=O)cc1
inactive: HOP-92 > 100 µM | RXF 393 > 100 µM | HT-29 > 100 µM | SN12C > 100 µM | SK-MEL-28 > 100 µM | TK-10 > 100 µM | SK-MEL-2 > 100 µM | OVCAR-3 > 100 µM | NCI-H460 > 100 µM | SW-620 > 100 µM | OVCAR-4 > 100 µM | SF-539 > 100 µM | Malme-3M > 100 µM | M14 > 100 µM

C=C[C@@]1(C)CCC2(O)C(CCC3C2(C)CCC[C@@]3(C)COC(=O)CC(=O)OC)C1 (some centres not stated)
inactive: RXF 393 23.7 µM | HT-29 18.9 µM | SN12C 19.9 µM | SK-MEL-28 17 µM | TK-10 18.7 µM | OVCAR-3 17.3 µM | SK-OV-3 > 100 µM | NCI-H460 34.3 µM | SW-620 17.6 µM | OVCAR-4 17.5 µM | SF-539 19.6 µM | NCI-H522 16.3 µM | Malme-3M 17.7 µM | M14 18.1 µM
